Earlier results, collected in article PMC9825171 (Nucleic Acids Research, 2022).

System: interactions of both NICD and SHARP with RBPJ
Conditions: cellular assays; ref [63]

## Cn1nccc1-c1ccc(C(N)=O)c(Oc2ccccc2F)c1 [RIN1]
  effect on RBPJ-coregulator interactions, in words: block the interactions of both NICD and SHARP with RBPJ
